In patent US8178873B2, “Solution processable organic semiconductors” (3M Innovative Properties Company, priority 2007, dated 2012):

Tests used:
[1] = Solubility measurement in n-butylbenzene; format: physicochemical; conditions: room temperature, weight percent based on total solution weight
Method: The solubility of the small molecule semiconductor was measured in n-butylbenzene at room temperature. The weight percent is based on the total solution weight. Typically, the solubility is lower in n-butylbenzene compared to halogenated solvents such as chloroform, chlorobenzene, and dichlorobenzene.

[2] = Differential Scanning Calorimetry, thermal stability; format: physicochemical; conditions: DSC, heated from 30 to 360° C. at 10° C. per minute
Method: Differential Scanning Calorimetry Measurement
Differential Scanning Calorimeter (DSC, TA Instruments 2920 from TA Instruments of New Castle, Del.) was used to measure phase transition and melting point of the small molecule semiconductors. Examples 1 to 8 were heated from 30 to 350° C. at a heating rate of 10° C. per minute. […] No decomposition was observed up to the 350° C. of the testing range. […] Example 9 was heated from 30 to 360° C. at a heating rate of 10° C. per minute. […] Example 9 started to decompose around 357° C.

Structure (SMILES)	Solubility in butyl benzene [1]	melting point	Temperature at which decomposition started [2]
CC(C)[Si](C#Cc1c2ccc(-c3cccs3)cc2c(C#C[Si](C(C)C)(C(C)C)C(C)C)c2ccc(-c3cccs3)cc12)(C(C)C)C(C)C [Example 1, 2,6-Bis(thiophene-2-yl)-9,10-bis-[(triisopropylsilyl)ethynyl]anthracene]	0.05 wt %	293 °C	–
Cc1ccc(-c2ccc3c(C#C[Si](C(C)C)(C(C)C)C(C)C)c4cc(-c5ccc(C)s5)ccc4c(C#C[Si](C(C)C)(C(C)C)C(C)C)c3c2)s1 [Example 2, 2,6-Bis(5-methyl-thiophene-2-yl)-9,10-bis-[(triisopropylsilyl)ethynyl]anthracene]	0.05 wt %	333 °C	–
Cc1ccsc1-c1ccc2c(C#C[Si](C(C)C)(C(C)C)C(C)C)c3cc(-c4sccc4C)ccc3c(C#C[Si](C(C)C)(C(C)C)C(C)C)c2c1 [Example 3, 2,6-Bis(3-methyl-thiophene-2-yl)-9,10-bis-[(triisopropylsilyl)ethynyl]anthracene]	2.3 wt %	237.6 °C	–
CCc1ccc(-c2ccc3c(C#C[Si](C(C)C)(C(C)C)C(C)C)c4cc(-c5ccc(CC)s5)ccc4c(C#C[Si](C(C)C)(C(C)C)C(C)C)c3c2)s1 [Example 4, 2,6-Bis(5-ethyl-thiophene-2-yl)-9,10-bis-[(triisopropylsilyl)ethynyl]anthracene]	1.4 wt %	274.6 °C	–
CCCc1ccc(-c2ccc3c(C#C[Si](C(C)C)(C(C)C)C(C)C)c4cc(-c5ccc(CCC)s5)ccc4c(C#C[Si](C(C)C)(C(C)C)C(C)C)c3c2)s1 [Example 5, 2,6-Bis(5-propyl-thiophene-2-yl)-9,10-bis-[(triisopropylsilyl)ethynyl]anthracene]	1.4 wt %	208.3 °C	–
CCCCCCc1ccc(-c2ccc3c(C#C[Si](C(C)C)(C(C)C)C(C)C)c4cc(-c5ccc(CCCCCC)s5)ccc4c(C#C[Si](C(C)C)(C(C)C)C(C)C)c3c2)s1 [Example 6, 2,6-Bis(5-hexyl-thiophene-2-yl)-9,10-bis-[(triisopropylsilyl)ethynyl]anthracene]	2.5 wt %	190.3 °C	–
CCCCCCc1ccsc1-c1ccc2c(C#C[Si](C(C)C)(C(C)C)C(C)C)c3cc(-c4sccc4CCCCCC)ccc3c(C#C[Si](C(C)C)(C(C)C)C(C)C)c2c1 [Example 7, 2,6-Bis(3-hexyl-thiophene-2-yl)-9,10-bis-[(triisopropylsilyl)ethynyl]anthracene]	4.2 wt %	141.8 °C	–
CC(C)[Si](C#Cc1c2ccc(-c3ccc(-c4cccs4)s3)cc2c(C#C[Si](C(C)C)(C(C)C)C(C)C)c2ccc(-c3ccc(-c4cccs4)s3)cc12)(C(C)C)C(C)C [Example 8, 2,6-Bis(2,2′-bithiophene-5-yl)-9,10-bis-[(triisopropylsilyl)ethynyl]anthracene]	0.2 wt %	299 °C	–
CC(C)[Si](C#Cc1c2ccc(-c3ccc(C=O)s3)cc2c(C#C[Si](C(C)C)(C(C)C)C(C)C)c2ccc(-c3ccc(C=O)s3)cc12)(C(C)C)C(C)C [Example 9, 2,6-Bis(5-formyl-thiophene-2-yl)-9,10-bis-[(triisopropylsilyl)ethynyl]anthracene]	0.04 wt %	> 350 °C	around 357 °C
